This note sets out measurements from patent US20120289681A1, “CONJUGATES OF CELL-PENETRATING PEPTIDES AND PHOSPHORESCENT METALLOPORPHYRINS FOR INTRACELLULAR OXYGEN MEASUREMENT” (UNIVERSITY COLLEGE CORK, NATIONAL UNIVERSITY OF IRELAND CORK, priority 2009, published 2012).

Starred links: 1 amine or outer side, 2 acyl side, 3 side chain; linkers in the order of their positions; H or OH if unused. Non-standard residues stand in square brackets, D forms with d. Residues, ends and D or L forms follow the SMILES beside them. No end group written: not given here. *: point of attachment. X1 = CCOC(=O)CCC1=C(C)c2cc3[nH]c(cc4nc(cc5[nH]c(cc1n2)c(C)c5CCC(=O)OCC)C(C)=C4CCC(=O)NCCNC(=O)CCN1C(=O)CC(*)C1=O)c(C)c3CCC(=O)OCC; X2 = CC1=C(CCC(=O)O)c2cc3[nH]c(cc4nc(cc5[nH]c(cc1n2)c(CCC(=O)O)c5C)C(CCC(=O)*)=C4C)c(CCC(=O)O)c3C; X3 = S=C(Nc1ccc(CCN[*:1])cc1)[*:2]; PtCP‑NCS = not defined here

Type in all cases: cell-based
Data set [1] can be described thus: Cell viability assessment by total cellular ATP (CellTiter-Glo). The settings on record: rat, differentiated PC12 cells. The procedure:
Cell viability was assessed by measuring total cellular ATP in the loaded cells using CellTiter-Glo luminescent kit (Promega). PC12 cells were seeded into 96 well plates at concentration 50,000/well, differentiated for 3 days, loaded with peptide probe at a concentration 10 uM for 21 hrs, then washed. CellTiter-Glo reagent was then added to each well and chemiluminescence was measured on the Victor2 plate reader (Perkin-Elmer). The total luminescence signal of unloaded cells was taken as 100% viability. For the cells loaded with probes, no significant changes in ATP were observed and cell viability was retained at 93-95%.

Data set [2] deals with PC12 cells. Nature of the data set: Cell loading with O2 probes assessed by time-resolved fluorometry (TR-F plate reader). The procedure: (§1) PC12 cells were seeded in standard 96-well plates pre-coated with collagen IV at 5×10^4 cells/well, and differentiated for 3-5 days in RPMI supplemented with 1% horse serum, P/S, and 100 ng/ml nerve growth factor. HepG2 cells were cultured in DMEM supplemented with 10% FBS, 2 mM L-glutamine and P/S, CHO—in Ex-Cell CHO DHFR^− medium supplemented with 4 mM L-glutamine and 1 μM methotrexate, HCT116—in McCoy medium supplemented with 10% FBS, 2 mM L-glutamine and P/S. The samples with cells were then loaded by incubating them with 1-10 μM of the O2 probe (prepared as described in Example 1) in regular medium at 37° C., 5% CO2, for the required period of time. After incubation the cells were washed 3 times with medium and 0.1 ml of fresh medium were added to each well. For comparison, some samples with cells were loaded with 1.2 μM PtCP-BSA probe (Luxcel Biosciences) in the presence of 6 μM Endo-Porter, as previously described (Zhdanov A V et al—J Biol Chem 283:5650-5661; 2008). The plate with loaded cells and control samples was then measured on a time-resolved fluorescence (TR-F) plate reader Victor 2 (PerkinElmer) set at 37° C., using 340 nm excitation and 642 nm emission filters. Each well was measured several times by taking TR-F intensity reading at delay time of 30 μs and gate time 100 μs. Measured TR-F signals were averaged and used to assess the efficiency of loading.
(§2) PC12 cells (seeded at 50,000 cells/well in standard 96 well plates and differentiated under standard conditions) were loaded with the cell-penetrating O2 probes in standard medium, using 1-10 uM probe concentrations, volume 100 ul/well and incubation time ranging from 20 min to 24 hrs. After probe loading wells were carefully washed three times with DME medium without phenol red and containing NGF. The same protocol was used for loading of adherent HCT116, HepG2 and SHSY5Y cells, using corresponding media.

In data set [3] the test system is PC12 cells. Nature of the data set: Respiratory response of probe-loaded cells to stimulation with FCCP (lifetime on TR-F reader). The settings on record: 1 uM FCCP. The protocol: as §2
Measurement of the cells loaded with probes was conducted on a TR-F plate reader Victor 2 (PerkinElmer, USA) at 37° C. as described in (O'Riordan T C et al—Anal Chem 79:9414-9419; 2007), using 340 nm excitation and 642 nm emission filters. Each well was measured repetitively every 1.8 minutes by taking two TR-F intensity readings at delay times of 30 μs (T1) and 70 μs (T2), using gate time 100 μs. Fluorescence intensity values at T1 (F1) and T2 (F2) were used for calculation of lifetime values using the following equation:
Lifetime [us]=(T2−T1)/ln(F1/F2),
For cell stimulation, the plate was monitored for 10-20 min to reach O2 and temperature equilibrium and obtain basal signals, then quickly withdrawn from the reader, compounds were added to the cells (10 μL of 10× stock solution) and monitoring was resumed. Metabolic effectors were added to the cells at the following final concentrations: 1 uM FCCP, 10 uM antimycin A, 0.5 uM Valinomycin, 5 mM EGTA, 100 mM KCl.

Data set [4] concerns HCT116 cells. As to the kind of experiment: Cell loading with O2 probes in HCT116 cells. The protocol: as §1, with “loading. […]” for “loading.”
For data set [5], the system named is cells. Nature of the data set: Cell-penetrating / cell-loading ability (cell line not stated).
For data set [6], the system named is cells. Nature of the data set: Toxicity of the dye/probe on cells (cell line not stated).

Take `CCOC(=O)CCC1=C(C)c2cc3[nH]c(cc4nc(cc5[nH]c(cc1n2)c(C)c5CCC(=O)OCC)C(C)=C4CCC(=O)NCCNC(=O)CCN1C(=O)CC(SC[C@H](N)C(=O)N[C@@H](Cc2ccccc2)C(=O)N[C@@H](CCCNC(=N)N)C(=O)N[C@@H](CCCNC(=N)N)C(=O)N[C@@H](CCCNC(=N)N)C(=O)N[C@@H](CCCNC(=N)N)C(=O)N[C@@H](CCCNC(=N)N)C(=O)N[C@@H](CCCNC(=N)N)C(=O)N[C@@H](CCCNC(=N)N)C(=O)N[C@@H](CCCNC(=N)N)C(=O)N[C@@H](CCCNC(=N)N)C(=O)O)C1=O)c(C)c3CCC(=O)OCC` (some centres unmarked) [PTCPTE-CFR9] (H-C(X1)FRRRRRRRRR-OH; N-terminus assumed): the viability at 21 h, 10 µM in data set [1] was 93 to 95%. The “uptake / accumulation in PC12 cells (in words)” value (from here on “uptake / accumulation”) in data set [2] was “higher intracellular uptake than PTCPTE-TAT”. Moreover, the “average fluorescence signals (cell loading)” value in data set [2] (after 24 h of loading) is recorded as “about 200,000 counts”. Further, in data set [3], the “increase in probe lifetime on FCCP stimulation” value is on record as 2 us and the “magnitude of respiratory response to FCCP in lifetime units” value was “about 2 microseconds”.
With `CC1=C(CCC(=O)O)c2cc3[nH]c(cc4nc(cc5[nH]c(cc1n2)c(CCC(=O)O)c5C)C(CCC(=O)NCCc1ccc(NC(=S)N[C@@H](Cc2ccccc2)C(=O)N[C@@H](CCCNC(=N)N)C(=O)N[C@@H](CCCNC(=N)N)C(=O)N[C@@H](CCCNC(=N)N)C(=O)N[C@@H](CCCNC(=N)N)C(=O)N[C@@H](CCCNC(=N)N)C(=O)N[C@@H](CCCNC(=N)N)C(=O)N[C@@H](CCCNC(=N)N)C(=O)N[C@@H](CCCNC(=N)N)C(=O)N[C@@H](CCCNC(=N)N)C(=O)O)cc1)=C4C)c(CCC(=O)O)c3C` [PtCP-FR9] (X2-[X3]FRRRRRRRRR-OH; C-terminus assumed), the “loading of HCT116 cells (in words)” value in data set [4] was “did not load well”. Besides, in data set [1], the viability at 21 h, 10 µM was 93 to 95%. Besides, the “uptake / accumulation” value in data set [2] is listed as “low uptake”. Moreover, the “magnitude of respiratory response to FCCP in lifetime units” value in data set [3] is “about 2 microseconds”.
“PEPP5: MTS-CGR9 peptide MGRTVVVLGGGISGLAAGCGRRRRRRRRR labelled with PTCPTE-MI derivative (PTCPTE-MI label)”: the “cell-penetrating / cell-loading ability (in words)” value in data set [5] is reported as “high cell loading efficiency”.
On to “Pt-tetrakis(pyridinium)porphine tetrachloride”, for which the “toxicity on cells (in words)” value in data set [6] was “high cyto- and phototoxicity”.
For “PtCP-BN: PtCP-NCS derivative labelled on N-terminal amino group of BN (bactenecin) peptide GPRPLPFPRPG ({PtCP‑NCS}-GPRPLPFPRPG; reading uncertain)”, the “loading of HCT116 cells (in words)” value in data set [4] is listed as “did not load well”. For the same molecule, in data set [2], the “uptake / accumulation” value is on record as “low uptake”.
In the case of “PtCP-BSA: conventional cell-impermeable O2 probe (Luxcel Biosciences), loaded with Endo-Porter transfection reagent [reference compound]”, in data set [2] (probe loaded by transfection (Endo-Porter)), the “average fluorescence signals (cell loading)” value is recorded as 60,000 cps.
